Values after ≈ are worked out from the molar mass of the structure shown. Like-named read-outs stand apart in the source and are kept apart here.
Test system: P. aeruginosa
Assay: MIC, broth microdilution, CDC/FDA Antibiotic Resistance Isolate Bank (Example 7, Tables 10, 15)
Assay type: cell-based
Conditions: Pseudomonas aeruginosa, read-out: MIC

Which MIC (P. aeruginosa KUB No. 5664, AR Bank # 231) does the source give for `CN(C)c1cc(NC(=O)CNC(C)(C)C)c(O)c2c1C[C@H]1C[C@H]3[C@H](N(C)C)C(O)=C(C(N)=O)C(=O)[C@@]3(O)C(O)=C1C2=O` [Tigecycline, tigecycline] here?
Its MIC is 16 µg/mL (≈ 27.3 µM).

And the MIC (P. aeruginosa KUB No. 5665, AR Bank # 232)?
Its MIC is 4 µg/mL (≈ 6.83 µM).

What about the MIC (P. aeruginosa KUB No. 5666, AR Bank # 23) of the same compound?
Its MIC is 8 µg/mL (≈ 13.7 µM).

And the MIC (P. aeruginosa KUB No. 5667, AR Bank # 234)?
The MIC was 2 µg/mL (≈ 3.41 µM).

And the MIC (P. aeruginosa KUB No. 5668, AR Bank # 235)?
Its MIC is 8 µg/mL (≈ 13.7 µM).

What about the MIC (P. aeruginosa KUB No. 5669, AR Bank # 236) of the same compound?
Its MIC is 4 µg/mL (≈ 6.83 µM).

And the MIC (P. aeruginosa KUB No. 5670, AR Bank # 237)?
The MIC was 2 µg/mL (≈ 3.41 µM).

And the MIC (P. aeruginosa KUB No. 5671, AR Bank # 238)?
The MIC was 4 µg/mL (≈ 6.83 µM).

And the MIC (P. aeruginosa KUB No. 5672, AR Bank # 239)?
Its MIC is 4 µg/mL (≈ 6.83 µM).

And the MIC (P. aeruginosa KUB No. 5673, AR Bank # 240)?
The MIC was 8 µg/mL (≈ 13.7 µM).

What about the MIC (P. aeruginosa KUB No. 5674, AR Bank # 241) of the same compound?
The MIC was 4 µg/mL (≈ 6.83 µM).

What about the MIC (P. aeruginosa KUB No. 5675, AR Bank # 242) of the same compound?
Its MIC is 2 µg/mL (≈ 3.41 µM).

What about the MIC (P. aeruginosa KUB No. 5676, AR Bank # 243) of the same compound?
The MIC was 1 µg/mL (≈ 1.71 µM).

And the MIC (P. aeruginosa KUB No. 5677, AR Bank # 244)?
Its MIC is 16 µg/mL (≈ 27.3 µM).

What about the MIC (P. aeruginosa KUB No. 5678, AR Bank # 245) of the same compound?
The MIC was 16 µg/mL (≈ 27.3 µM).

And the MIC (P. aeruginosa KUB No. 5679, AR Bank # 246)?
The MIC was 4 µg/mL (≈ 6.83 µM).

What about the MIC (P. aeruginosa KUB No. 5680, AR Bank # 247) of the same compound?
Its MIC is 4 µg/mL (≈ 6.83 µM).

What about the MIC (P. aeruginosa KUB No. 5681, AR Bank # 248) of the same compound?
The MIC was 2 µg/mL (≈ 3.41 µM).

What about the MIC (P. aeruginosa KUB No. 5682, AR Bank # 249) of the same compound?
Its MIC is 4 µg/mL (≈ 6.83 µM).

What about the MIC (P. aeruginosa KUB No. 5684, AR Bank # 251) of the same compound?
Its MIC is 4 µg/mL (≈ 6.83 µM).

What about the MIC (P. aeruginosa KUB No. 5685, AR Bank # 252) of the same compound?
The MIC was 0.5 µg/mL (≈ 0.854 µM).

And the MIC (P. aeruginosa KUB No. 5686, AR Bank # 253)?
The MIC was 2 µg/mL (≈ 3.41 µM).

What about the MIC (P. aeruginosa KUB No. 5688, AR Bank # 255) of the same compound?
Its MIC is 2 µg/mL (≈ 3.41 µM).

And the MIC (P. aeruginosa KUB No. 5690, AR Bank # 257)?
Its MIC is 8 µg/mL (≈ 13.7 µM).

What about the MIC (P. aeruginosa KUB No. 5691, AR Bank # 258) of the same compound?
Its MIC is 2 µg/mL (≈ 3.41 µM).

What about the MIC (P. aeruginosa KUB No. 5692, AR Bank # 259) of the same compound?
The MIC was 4 µg/mL (≈ 6.83 µM).

And the MIC (P. aeruginosa KUB No. 5693, AR Bank # 260)?
The MIC was 2 µg/mL (≈ 3.41 µM).

And the MIC (P. aeruginosa KUB No. 5694, AR Bank # 261)?
Its MIC is 8 µg/mL (≈ 13.7 µM).

And the MIC (P. aeruginosa KUB No. 5695, AR Bank # 262)?
Its MIC is 2 µg/mL (≈ 3.41 µM).

And the MIC (P. aeruginosa KUB No. 5696, AR Bank # 263)?
Its MIC is 1 µg/mL (≈ 1.71 µM).

What about the MIC (P. aeruginosa KUB No. 5697, AR Bank # 264) of the same compound?
Its MIC is 2 µg/mL (≈ 3.41 µM).

What about the MIC (P. aeruginosa KUB No. 5698, AR Bank # 265) of the same compound?
The MIC was 8 µg/mL (≈ 13.7 µM).

What about the MIC (P. aeruginosa KUB No. 5699, AR Bank # 266) of the same compound?
The MIC was 8 µg/mL (≈ 13.7 µM).

What about the MIC (P. aeruginosa KUB No. 5700, AR Bank # 267) of the same compound?
Its MIC is 8 µg/mL (≈ 13.7 µM).

What about the MIC (P. aeruginosa KUB No. 5701, AR Bank # 268) of the same compound?
Its MIC is 2 µg/mL (≈ 3.41 µM).

And the MIC (P. aeruginosa KUB No. 5702, AR Bank # 269)?
Its MIC is 4 µg/mL (≈ 6.83 µM).

What about the MIC (P. aeruginosa KUB No. 5703, AR Bank # 270) of the same compound?
The MIC was 8 µg/mL (≈ 13.7 µM).

What about the MIC (P. aeruginosa KUB No. 5704, AR Bank # 271) of the same compound?
The MIC was 4 µg/mL (≈ 6.83 µM).

What about the MIC (P. aeruginosa KUB No. 5705, AR Bank # 272) of the same compound?
Its MIC is 2 µg/mL (≈ 3.41 µM).

What about the MIC (P. aeruginosa KUB No. 5747, AR Bank # 351) of the same compound?
Its MIC is 8 µg/mL (≈ 13.7 µM).

And the MIC (P. aeruginosa KUB No. 5748, AR Bank # 352)?
The MIC was 8 µg/mL (≈ 13.7 µM).

What about the MIC (P. aeruginosa KUB No. 5749, AR Bank # 353) of the same compound?
The MIC was 2 µg/mL (≈ 3.41 µM).

What about the MIC (P. aeruginosa KUB No. 5750, AR Bank # 354) of the same compound?
The MIC was 4 µg/mL (≈ 6.83 µM).

And the MIC (P. aeruginosa KUB No. 5751, AR Bank # 355)?
Its MIC is 8 µg/mL (≈ 13.7 µM).

What about the MIC (P. aeruginosa KUB No. 5752, AR Bank # 356) of the same compound?
The MIC was 2 µg/mL (≈ 3.41 µM).

What about the MIC (P. aeruginosa KUB No. 5753, AR Bank # 357) of the same compound?
The MIC was 8 µg/mL (≈ 13.7 µM).

And the MIC (P. aeruginosa KUB No. 5754, AR Bank # 358)?
Its MIC is 4 µg/mL (≈ 6.83 µM).

What about the MIC (P. aeruginosa KUB No. 5755, AR Bank # 359) of the same compound?
Its MIC is 4 µg/mL (≈ 6.83 µM).

What about the MIC (P. aeruginosa KUB No. 5756, AR Bank # 360) of the same compound?
The MIC was 4 µg/mL (≈ 6.83 µM).

And the MIC (P. aeruginosa KUB No. 5785, AR Bank # 439)?
Its MIC is 4 µg/mL (≈ 6.83 µM).

What about the MIC (P. aeruginosa KUB No. 5786, AR Bank # 440) of the same compound?
Its MIC is 8 µg/mL (≈ 13.7 µM).

What about the MIC (P. aeruginosa KUB No. 5787, AR Bank # 441) of the same compound?
The MIC was 4 µg/mL (≈ 6.83 µM).

What about the MIC (P. aeruginosa KUB No. 5788, AR Bank # 443) of the same compound?
The MIC was 4 µg/mL (≈ 6.83 µM).

What about the MIC (P. aeruginosa KUB No. 5789, AR Bank # 444) of the same compound?
The MIC was 4 µg/mL (≈ 6.83 µM).

And the MIC (P. aeruginosa KUB No. 5790, AR Bank # 445)?
Its MIC is 4 µg/mL (≈ 6.83 µM).

And the MIC (P. aeruginosa KUB No. 5793, AR Bank # 449)?
Its MIC is 4 µg/mL (≈ 6.83 µM).

What about the MIC (P. aeruginosa KUB No. 5798, AR Bank # 455) of the same compound?
Its MIC is 1 µg/mL (≈ 1.71 µM).

What about the MIC (P. aeruginosa KUB No. 5799, AR Bank # 456) of the same compound?
Its MIC is 8 µg/mL (≈ 13.7 µM).

And the MIC (P. aeruginosa KUB No. 5800, AR Bank # 457)?
The MIC was 2 µg/mL (≈ 3.41 µM).

What about the MIC (P. aeruginosa KUB No. 5801, AR Bank # 458) of the same compound?
Its MIC is 8 µg/mL (≈ 13.7 µM).

What about the MIC (P. aeruginosa KUB No. 5802, AR Bank # 459) of the same compound?
The MIC was 4 µg/mL (≈ 6.83 µM).

And the MIC (P. aeruginosa KUB No. 5804, AR Bank # 862)?
The MIC was 8 µg/mL (≈ 13.7 µM).

And the MIC (P. aeruginosa KUB No. 5805, AR Bank # 863)?
Its MIC is 8 µg/mL (≈ 13.7 µM).

What about the MIC (P. aeruginosa KUB No. 5806, AR Bank # 864) of the same compound?
The MIC was 2 µg/mL (≈ 3.41 µM).

And the MIC (P. aeruginosa KUB No. 5813, AR Bank # 508)?
The MIC was 0.016 µg/mL (≈ 0.0273 µM).

And the MIC (P. aeruginosa KUB No. 5814, AR Bank # 509)?
The MIC was 0.008 µg/mL (≈ 0.0137 µM).

What about the MIC (P. aeruginosa KUB No. 5815, AR Bank # 510) of the same compound?
The MIC was 0.002 µg/mL (≈ 0.00341 µM).

What about the MIC (P. aeruginosa KUB No. 5816, AR Bank # 511) of the same compound?
Its MIC is 0.004 µg/mL (≈ 0.00683 µM).

And the MIC (P. aeruginosa KUB No. 5817, AR Bank # 512)?
Its MIC is 0.016 µg/mL (≈ 0.0273 µM).

And the MIC (P. aeruginosa KUB No. 5818, AR Bank # 513)?
Its MIC is 0.008 µg/mL (≈ 0.0137 µM).

What about the MIC (P. aeruginosa KUB No. 5819, AR Bank # 514) of the same compound?
Its MIC is 0.004 µg/mL (≈ 0.00683 µM).

What about the MIC (P. aeruginosa KUB No. 5820, AR Bank # 515) of the same compound?
The MIC was 0.008 µg/mL (≈ 0.0137 µM).

What about the MIC (P. aeruginosa KUB No. 5821, AR Bank # 516) of the same compound?
Its MIC is 0.004 µg/mL (≈ 0.00683 µM).

What about the MIC (P. aeruginosa KUB No. 5823, AR Bank # 518) of the same compound?
Its MIC is 0.016 µg/mL (≈ 0.0273 µM).

What about the MIC (P. aeruginosa KUB No. 5831, AR Bank # 526) of the same compound?
The MIC was 0.004 µg/mL (≈ 0.00683 µM).

And the MIC (P. aeruginosa KUB No. 5832, AR Bank # 527)?
The MIC was 0.002 µg/mL (≈ 0.00341 µM).

What about the MIC (P. aeruginosa KUB No. 5833, AR Bank # 528) of the same compound?
Its MIC is 0.004 µg/mL (≈ 0.00683 µM).

And the MIC (P. aeruginosa KUB No. 5834, AR Bank # 529)?
The MIC was 0.004 µg/mL (≈ 0.00683 µM).

Source: EP4635500A1, “THERAPEUTIC AGENT FOR BACTERIAL INFECTION” (Sumitomo Pharma Co., Ltd., priority 2022, dated 2024)
